{"source": "ChEMBL document CHEMBL1687752", "about": "“Impact of antifungal prophylaxis on colonization and azole susceptibility of Candida species” (2009)"}
{"tested_on": "Nakaseomyces glabratus", "test": "Antifungal activity against Candida glabrata isolated from HSCT recipient 270 with acute or chronic GVHD mouth receiving antifungal drug after 108 days prophylaxis by broth microdilution method", "assay_type": "functional", "conditions": "not given", "units": {"MIC": "µg/mL"}}
{"smiles": "CC[C@@H]([C@H](C)O)n1ncn(-c2ccc(N3CCN(c4ccc(OC[C@@H]5CO[C@@](Cn6cncn6)(c6ccc(F)cc6F)C5)cc4)CC3)cc2)c1=O", "note": "[POSACONAZOLE]", "MIC": 1}
{"tested_on": "Nakaseomyces glabratus", "test": "Antifungal activity against Candida glabrata isolated from neutropenic subject 1331 with AML or MDS pharynx receiving antifungal drug after 21 days prophylaxis by broth microdilution method", "assay_type": "functional", "conditions": "504 h", "units": {"MIC": "µg/mL"}}
{"smiles": "CC[C@@H]([C@H](C)O)n1ncn(-c2ccc(N3CCN(c4ccc(OC[C@@H]5CO[C@@](Cn6cncn6)(c6ccc(F)cc6F)C5)cc4)CC3)cc2)c1=O", "note": "[POSACONAZOLE]", "MIC": 8}
{"tested_on": "Pichia kudriavzevii", "test": "Antifungal activity against 14 days cultured Candida krusei isolated from neutropenic subject with AML or MDS stool after 12 days of prophylaxis by broth microdilution method", "assay_type": "functional", "conditions": "not given", "units": {"MIC": "µg/mL"}}
{"smiles": "CC[C@@H]([C@H](C)O)n1ncn(-c2ccc(N3CCN(c4ccc(OC[C@@H]5CO[C@@](Cn6cncn6)(c6ccc(F)cc6F)C5)cc4)CC3)cc2)c1=O", "note": "[POSACONAZOLE]", "MIC": 0.125}
{"tested_on": "Nakaseomyces glabratus", "test": "Antifungal activity against Candida glabrata isolated from neutropenic subject 1318 with AML or MDS stool after 36 days prophylaxis by broth microdilution method", "assay_type": "functional", "conditions": "not given", "units": {"MIC": "µg/mL"}}
{"smiles": "CC[C@@H]([C@H](C)O)n1ncn(-c2ccc(N3CCN(c4ccc(OC[C@@H]5CO[C@@](Cn6cncn6)(c6ccc(F)cc6F)C5)cc4)CC3)cc2)c1=O", "note": "[POSACONAZOLE]", "MIC": 0.5}
{"tested_on": "Pichia kudriavzevii", "test": "Antifungal activity against Candida krusei isolated from HSCT recipients with acute or chronic GVHD prior to initiation of posaconazole therapy assessed as maximum MIC by broth microdilution method", "assay_type": "functional", "conditions": "not given", "units": {"MIC": "µg/mL"}}
{"smiles": "CC[C@@H]([C@H](C)O)n1ncn(-c2ccc(N3CCN(c4ccc(OC[C@@H]5CO[C@@](Cn6cncn6)(c6ccc(F)cc6F)C5)cc4)CC3)cc2)c1=O", "note": "[POSACONAZOLE]", "MIC": 0.5}
{"tested_on": "Pichia kudriavzevii", "test": "Antifungal activity against Candida krusei isolated from HSCT recipients with acute or chronic GVHD prior to initiation of fluconazole therapy assessed as maximum MIC by broth microdilution method", "assay_type": "functional", "conditions": "not given", "units": {"MIC": "µg/mL"}}
{"smiles": "CC[C@@H]([C@H](C)O)n1ncn(-c2ccc(N3CCN(c4ccc(OC[C@@H]5CO[C@@](Cn6cncn6)(c6ccc(F)cc6F)C5)cc4)CC3)cc2)c1=O", "note": "[POSACONAZOLE]", "MIC": 0.5}
{"tested_on": "Nakaseomyces glabratus", "test": "Antifungal activity against Candida glabrata isolated from HSCT recipients with acute or chronic GVHD receiving fluconazole assessed as maximum MIC by broth microdilution method", "assay_type": "functional", "conditions": "not given", "units": {"MIC": "µg/mL"}}
{"smiles": "CC[C@@H]([C@H](C)O)n1ncn(-c2ccc(N3CCN(c4ccc(OC[C@@H]5CO[C@@](Cn6cncn6)(c6ccc(F)cc6F)C5)cc4)CC3)cc2)c1=O", "note": "[POSACONAZOLE]", "MIC": 16}
{"tested_on": "Nakaseomyces glabratus", "test": "Antifungal activity against Candida glabrata isolated from neutropenic subjects with AML or MDS receiving fluconazole assessed as maximum MIC by broth microdilution method", "assay_type": "functional", "conditions": "not given", "units": {"MIC": "µg/mL"}}
{"smiles": "CC[C@@H]([C@H](C)O)n1ncn(-c2ccc(N3CCN(c4ccc(OC[C@@H]5CO[C@@](Cn6cncn6)(c6ccc(F)cc6F)C5)cc4)CC3)cc2)c1=O", "note": "[POSACONAZOLE]", "MIC": 2}
{"tested_on": "Candida albicans", "test": "Antifungal activity against Candida albicans isolated from neutropenic subjects with AML or MDS prior to initiation of fluconazole therapy assessed as maximum MIC by broth microdilution method", "assay_type": "functional", "conditions": "not given", "units": {"MIC": "µg/mL"}}
{"smiles": "CC[C@@H]([C@H](C)O)n1ncn(-c2ccc(N3CCN(c4ccc(OC[C@@H]5CO[C@@](Cn6cncn6)(c6ccc(F)cc6F)C5)cc4)CC3)cc2)c1=O", "note": "[POSACONAZOLE]", "MIC": 0.06}
{"tested_on": "Pichia kudriavzevii", "test": "Antifungal activity against Candida krusei isolated from neutropenic subjects with AML or MDS prior to initiation of posaconazole therapy assessed as maximum MIC by broth microdilution method", "assay_type": "functional", "conditions": "not given", "units": {"MIC": "µg/mL"}}
{"smiles": "CC[C@@H]([C@H](C)O)n1ncn(-c2ccc(N3CCN(c4ccc(OC[C@@H]5CO[C@@](Cn6cncn6)(c6ccc(F)cc6F)C5)cc4)CC3)cc2)c1=O", "note": "[POSACONAZOLE]", "MIC": 0.25}
{"tested_on": "Candida albicans", "test": "Antifungal activity against Candida albicans isolated from neutropenic subjects with AML or MDS receiving posaconazole by broth microdilution method", "assay_type": "functional", "conditions": "not given", "units": {"MIC50": "µg/mL", "MIC90": "µg/mL"}}
{"smiles": "CC[C@@H]([C@H](C)O)n1ncn(-c2ccc(N3CCN(c4ccc(OC[C@@H]5CO[C@@](Cn6cncn6)(c6ccc(F)cc6F)C5)cc4)CC3)cc2)c1=O", "note": "[POSACONAZOLE]", "MIC50": 0.015, "MIC90": 0.015}
{"tested_on": "Candida albicans", "test": "Antifungal activity against Candida albicans isolated from HSCT recipient 462 with acute or chronic GVHD mouth receiving antifungal drug after 112 days prophylaxis by broth microdilution method", "assay_type": "functional", "conditions": "not given", "units": {"MIC": "µg/mL"}}
{"smiles": "CC[C@@H]([C@H](C)O)n1ncn(-c2ccc(N3CCN(c4ccc(OC[C@@H]5CO[C@@](Cn6cncn6)(c6ccc(F)cc6F)C5)cc4)CC3)cc2)c1=O", "note": "[POSACONAZOLE]", "MIC": 0.06}
{"tested_on": "Candida tropicalis", "test": "Antifungal activity against 2 days cultured Candida tropicalis isolated from neutropenic subject with AML or MDS pharynx receiving antifungal therapy for 45 days after 24 days of prophylaxis by broth microdilution method", "assay_type": "functional", "conditions": "not given", "units": {"MIC": "µg/mL"}}
{"smiles": "CC[C@@H]([C@H](C)O)n1ncn(-c2ccc(N3CCN(c4ccc(OC[C@@H]5CO[C@@](Cn6cncn6)(c6ccc(F)cc6F)C5)cc4)CC3)cc2)c1=O", "note": "[POSACONAZOLE]", "MIC": "< 0.015"}
{"tested_on": "Nakaseomyces glabratus", "test": "Antifungal activity against Candida glabrata isolated from HSCT recipients with acute or chronic GVHD receiving posaconazole assessed as maximum MIC by broth microdilution method", "assay_type": "functional", "conditions": "not given", "units": {"MIC": "µg/mL"}}
{"smiles": "CC[C@@H]([C@H](C)O)n1ncn(-c2ccc(N3CCN(c4ccc(OC[C@@H]5CO[C@@](Cn6cncn6)(c6ccc(F)cc6F)C5)cc4)CC3)cc2)c1=O", "note": "[POSACONAZOLE]", "MIC": 8}
{"tested_on": "Pichia kudriavzevii", "test": "Antifungal activity against Candida krusei isolated from neutropenic subjects with AML or MDS prior to initiation of fluconazole therapy assessed as maximum MIC by broth microdilution method", "assay_type": "functional", "conditions": "not given", "units": {"MIC": "µg/mL"}}
{"smiles": "CC[C@@H]([C@H](C)O)n1ncn(-c2ccc(N3CCN(c4ccc(OC[C@@H]5CO[C@@](Cn6cncn6)(c6ccc(F)cc6F)C5)cc4)CC3)cc2)c1=O", "note": "[POSACONAZOLE]", "MIC": 0.25}
{"tested_on": "Nakaseomyces glabratus", "test": "Antifungal activity against 176 days cultured Candida glabrata isolated from HSCT recipient with acute or chronic GVHD mouth receiving antifungal therapy for 172 days after 114 days of prophylaxis by broth microdilution method", "assay_type": "functional", "conditions": "not given", "units": {"MIC": "µg/mL"}}
{"smiles": "CC[C@@H]([C@H](C)O)n1ncn(-c2ccc(N3CCN(c4ccc(OC[C@@H]5CO[C@@](Cn6cncn6)(c6ccc(F)cc6F)C5)cc4)CC3)cc2)c1=O", "note": "[POSACONAZOLE]", "MIC": 2}
{"tested_on": "Nakaseomyces glabratus", "test": "Antifungal activity against Candida glabrata isolated from HSCT recipients with acute or chronic GVHD prior to initiation of fluconazole therapy assessed as maximum MIC by broth microdilution method", "assay_type": "functional", "conditions": "not given", "units": {"MIC": "µg/mL"}}
{"smiles": "CC[C@@H]([C@H](C)O)n1ncn(-c2ccc(N3CCN(c4ccc(OC[C@@H]5CO[C@@](Cn6cncn6)(c6ccc(F)cc6F)C5)cc4)CC3)cc2)c1=O", "note": "[POSACONAZOLE]", "MIC": 16}
{"tested_on": "Nakaseomyces glabratus", "test": "Antifungal activity against Candida glabrata isolated from HSCT recipient 807 with acute or chronic GVHD mouth after 114 days prophylaxis by broth microdilution method", "assay_type": "functional", "conditions": "not given", "units": {"MIC": "µg/mL"}}
{"smiles": "CC[C@@H]([C@H](C)O)n1ncn(-c2ccc(N3CCN(c4ccc(OC[C@@H]5CO[C@@](Cn6cncn6)(c6ccc(F)cc6F)C5)cc4)CC3)cc2)c1=O", "note": "[POSACONAZOLE]", "MIC": 0.25}
{"tested_on": "Pichia kudriavzevii", "test": "Antifungal activity against 6 days cultured Candida krusei isolated from neutropenic subject with AML or MDS stool receiving antifungal therapy for 19 days after 6 days of prophylaxis by broth microdilution method", "assay_type": "functional", "conditions": "not given", "units": {"MIC": "µg/mL"}}
{"smiles": "CC[C@@H]([C@H](C)O)n1ncn(-c2ccc(N3CCN(c4ccc(OC[C@@H]5CO[C@@](Cn6cncn6)(c6ccc(F)cc6F)C5)cc4)CC3)cc2)c1=O", "note": "[POSACONAZOLE]", "MIC": 0.125}
